Assay results: paper PMC10330904 (Toxicology and applied pharmacology, 2023)

Legend:
[1] = target: Acetylcholinesterase (AChE) (with human microsomes); details: read-out: tox21-ms-ache-p2 (IC50); cited from earlier work
[2] = tested on: Acetylcholinesterase (AChE) (biochemical); details: cited from earlier work; for IC50: read-out: tox21-ache-p5 (IC50)
[3] = tested on: cell viability counter screens

CCOP(=S)(Oc1ccc([N+](=O)[O-])cc1)c1ccccc1 (centres unmarked)
IC50 [1]: 2000 nM | tox21-ache-p5 (IC50) [2]: inactive

CCOP(=S)(OCC)SCn1nnc2ccccc2c1=O [Azinphos-ethyl]
IC50 [1]: 250 nM | IC50 [2]: 35.5 µM

CCOP(=S)(OCC)Oc1nc(Cl)c(Cl)cc1Cl [Chlorpyrifos]
IC50 [1]: 250 nM | IC50 [2]: 79.4 µM

CCOP(=S)(OCC)Oc1ccc2c(C)c(Cl)c(=O)oc2c1 [Coumaphos]
IC50 [1]: 1070 nM | IC50 [2]: 53.7 µM

CCOP(=S)(OCC)SC(CCl)N1C(=O)c2ccccc2C1=O (centres unmarked) [Dialifor]
IC50 [1]: 1410 nM | IC50 [2]: 63.1 µM

COP(N)(=S)Oc1ccccc1C(=O)OC(C)C (centres unmarked) [Isocarbophos]
IC50 [1]: 2820 nM | tox21-ache-p5 (IC50) [2]: inactive

CCOP(=S)(OCC)Oc1ccc([N+](=O)[O-])cc1 [Parathion]
IC50 [1]: 740 nM | IC50 [2]: 24.6 µM

CCOP(=S)(OCC)SCn1c(=O)oc2cc(Cl)ccc21 [Phosalone]
IC50 [1]: 5890 nM | tox21-ache-p5 (IC50) [2]: inactive

CCOP(=S)(OCC)O/N=C(\C#N)c1ccccc1 [Phoxim]
IC50 [1]: 1660 nM | IC50 [2]: 56.2 µM

CCOP(=S)(OCC)Oc1cnc2ccccc2n1 [Quinalphos]
IC50 [1]: 1000 nM | IC50 [2]: 79.4 µM

CCOP(=S)(OCC)SCSC(C)(C)C [Terbufos]
IC50 [1]: 47900 nM | tox21-ache-p5 (IC50) [2]: inactive

Oc1c(Cl)cc(Cl)cc1Sc1cc(Cl)cc(Cl)c1O [bithionol]
viability assay hit rate [3]: 98.78%

[H]/N=C(\N/C(=N/[H])NCCCCCCNC(=N)NC(=N)Nc1ccc(Cl)cc1)Nc1ccc(Cl)cc1 [chlorhexidine]
viability assay hit rate [3]: 97.56%

O=C1C(Cl)=C(Cl)C(=O)c2ccccc21 [dichlone]
viability assay hit rate [3]: 97.56%

Oc1c(Cl)cc(Cl)c(Cl)c1Cc1c(O)c(Cl)cc(Cl)c1Cl [hexachlorophene]
viability assay hit rate [3]: 97.56%

CC1=CC(=O)c2ccccc2C1=O [menadione]
viability assay hit rate [3]: 97.56%

Cc1cc(C(C)(C)CC(C)(C)C)ccc1OCCOCC[N+](C)(C)Cc1ccccc1.[Cl-] [methylbenzethonium chloride]
viability assay hit rate [3]: 97.56%

Oc1cc(Cl)ccc1Oc1ccc(Cl)cc1Cl [triclosan]
viability assay hit rate [3]: 97.56%
